The source of these data is US20100317733A1, “USE OF CIS-EPOXYEICOSANTRIENOIC ACIDS AND INHIBITORS OF SOLUBLE EPOXIDE HYDROLASE TO REDUCE PULMONARY INFILTRATION BY NEUTROPHILS” (THE REGENTS OF THE UNIVERSITY OF CALIFORNIA, priority 2004, published 2010).

As usually defined, the half-life is how long it takes for the measured level to halve. Higher therefore signals slow decline.

The nature of series [1]: Metabolic stability (stated, no method).
Series [2] addresses T1, sEH (Homo sapiens, UniProt P34913).
T1 sequence (P34913 1-555): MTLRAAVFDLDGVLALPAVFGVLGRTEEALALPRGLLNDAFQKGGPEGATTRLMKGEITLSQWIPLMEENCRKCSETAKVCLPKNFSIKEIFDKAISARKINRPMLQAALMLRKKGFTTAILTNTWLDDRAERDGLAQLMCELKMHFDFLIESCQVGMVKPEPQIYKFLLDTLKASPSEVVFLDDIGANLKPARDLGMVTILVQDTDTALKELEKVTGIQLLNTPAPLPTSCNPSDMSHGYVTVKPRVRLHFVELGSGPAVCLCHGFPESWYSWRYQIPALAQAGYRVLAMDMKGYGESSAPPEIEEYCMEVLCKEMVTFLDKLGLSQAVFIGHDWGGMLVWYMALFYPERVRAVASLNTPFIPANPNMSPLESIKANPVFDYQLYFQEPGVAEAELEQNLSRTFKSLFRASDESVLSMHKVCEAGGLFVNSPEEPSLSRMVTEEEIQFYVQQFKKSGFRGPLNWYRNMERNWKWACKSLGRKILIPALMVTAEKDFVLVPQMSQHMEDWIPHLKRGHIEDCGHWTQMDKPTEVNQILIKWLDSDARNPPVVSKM
Description: Inhibition of soluble epoxide hydrolase (sEH). The format is biochemical. The source says:
The enzyme also can be detected based on the binding of specific ligands to the catalytic site which either immobilize the enzyme or label it with a probe such as dansyl, fluoracein, luciferase, green fluorescent protein or other reagent.
The assays are normally carried out with a recombinant enzyme following affinity purification.

The subject of series [3] is tobacco smoke-induced inflammation in the lungs of rats. The following applies: Smith 2002; cited from earlier work.
A short description of series [4]: Pharmacokinetics in SH rats following subcutaneous administration. The format is in vivo. The procedure: Equipment. LC-MS-MS analysis was performed using a Micromass Quattro Ultima triple quadrupole tandem mass spectrometer (Micromass, Manchester, UK) equipped with atomospheric pressure ionization source [atomospheric z-spray pressure chemical ionization (APcI) or electrospray ionization (ESI) interface]. The HPLC system consisted of a Waters model 2790 separations module (Waters Corporation, Milford, Mass.) including an autosampler with refrigerated sample compartment and as inline vacuum degasser and Waters model 2487 dual λ absorbance detector (Waters Corporation). An XTerra™MS C18 column (30×2.1 mm I. D., 3.5 μm; Waters Corporation) was used with a flow rate of 0.3 mL/min at ambient temperature. Data were manipulated with MassLynx software (Ver. 4.0).
LC-MS-MS conditions. The ESI mass spectrometer was operated in the positive ion mode with a capillary voltage at 1.0 kV. Cone gas (N2) and desolvation gas (N2) were maintained at flow rates of 130 and 630 L/h, respectively. The source and the desolvation temperature were set at 100° C. and 300° C., respectively. […] Quantitative analysis was performed in the multiple reaction monitoring (MRM) mode with a dwell time of 300 ms. Ultra pure argon (99.9999%) was used as a collision gas at a pressure of 2.5 milli-torr for collision-induced dissociation (CID). […]
Pharmacokinetics analysis. […] AUCt was calculated by the linear/log trapezoidal rule.

The subject of series [5] is cells in BAL from rats exposed to tobacco smoke. Description: Bronchoalveolar lavage (BAL) cell counts and differentials in rats exposed to tobacco smoke for 3 days. The format is in vivo, SH rats. The following applies: for % Eosinophils / % Lymphocytes / % Macrophages / % Neutrophils: cell differential in BAL, 3 days, mean ± SE (n = 4). From the text: Animals. Healthy, 11-week-old male spontaneously hypertensive (“SH”) (SHR/NCrlBR) rats (derived from WKY rats by phenotypic segregation of the hypertensive trait and inbreeding) were purchased from Charles River Laboratories (Portage, Mich.) and quarantined for 1 week prior to exposure to tobacco smoke. Animals were handled in accordance with standards established by the U.S. Animal Welfare Acts set forth in National Institutes of Health guidelines and the University of California, Davis Animal Care and Use Committee. The rats were housed in plastic cages with TEK-Chip pelleted paper bedding (Harlan Teklad, Madison, Wis.) and maintained on a 12 hour light/12 hour dark cycle. All animals had access to water and Laboratory Rodent Diet 5001 purchased from LabDiet (Brentwood, Mo.) ad libitum before, during and after exposures.
Subcutaneous Implantation of EETs for Tobacco Smoke Exposures. Wax formulations containing EETs were implanted subcutaneously 1 day prior to onset of exposure to tobacco smoke. Animals were implanted with the EETs formulation on the day before the first day of exposure. Four animals from the control group and four animals from the tobacco smoke-exposed group were implanted with the EETs formulation. The approach of a single subcutaneous implantation for the 3-day study was selected to minimize stress to animals from anesthesia.
Subcutaneous injection of AUDA-nBE for Tobacco Smoke Exposures. AUDA-nBE (7 mg/1 ml corn oil) was subcutaneously administered in SH rats at a dose of 10 mg/kg bodyweight. The total volume injected was 0.36 to 0.46 ml. Animals were injected with AUDA-nBE each day prior to exposure. Doses of AUDA-nBE used in this study were selected based on results from preliminary pharmacokinetic studies in mice and rats. These doses were selected to provide optimal efficacy and minimal toxicity over a three-day period. Four animals from the control group and four animals from the tobacco smoke-exposed group were injected with AUDA-nBE. Four animals with EETs implants from the control group and four animals with EETs implants from the tobacco smoke-exposed group were injected with AUDA-nBE. In addition, four control animals and four tobacco smoke-exposed animals were injected with corn oil using the same protocol as the AUDA-nBE -injected animals.
Tobacco Smoke Exposure. Rats were exposed to a mixture of sidestream and mainstream cigarette smoke in a smoking apparatus (Teague, S. V. et al., Inhal. Toxicol. 6:79-93 (1994)). The cigarettes were humidified 2R4F research cigarettes (Tobacco Health Research Institute; Lexington, Ky.). An automatic metered puffer was used to smoke the cigarettes under Federal Trade Commission conditions (35 ml puff, 2 sec duration, 1 puff per min). The smoke was collected in a chimney, diluted with filtered air, and delivered to whole-body exposure chambers. The exposures were characterized for three major constituents of cigarette smoke; nicotine, carbon monoxide, and total suspended particulates (TSP). […] Carbon monoxide was measured every 30 minutes, TSP every 2 hours, and nicotine once per day (approximately midway through the exposure period).
Bronchoalveolar Lavage. Established protocols were followed for bronchoalveolar lavage (BAL) of animals (Gossart, S. et al., J. Immunol. 156:1540-1548 (1996)). Eighteen hours after the last exposure to tobacco smoke, animals were anesthetized with an overdose of sodium pentobarbital. The trachea was cannulated and the lung lavaged with one aliquot of Ca^2+/Mg^2+-free phosphate buffered saline (PBS, pH 7.4). The volume of the aliquot was equal to 35 ml/kg body weight (approximately 90% of total lung capacity). The aliquot was instilled into the lungs three times before final collection. The BAL fluid (BALF) was immediately centrifuged at 250×g for 10 min at 4° C. to remove cells. The cell pellet was then resuspended in PBS and the cells counted with a hemocytometer. […]

“Also recorded” adds a separate entry of the source.

On to `CCCCCCCCCCCCNC(=O)NC12CC3CC(CC(C3)C1)C2` [ADU, N-Adamantyl-N′-dodecyl urea], for which, in series [1], the metabolic stability result is recorded as “metabolically stable”. For the same molecule, the “activity as an inhibitor of sEH” value in series [2] is given as “particularly high activity”.
Turning to `CCN1C=CN(CC)C1=C1C2=NC(=C(c3n(CC)cc[n+]3CC)C3=NC(=C(c4n(CC)cc[n+]4CC)c4ccc([n-]4)C(c4n(CC)cc[n+]4CC)=C4C=CC1=N4)C=C3)C=C2.[Cl-].[Cl-].[Cl-].[Cl-].[Cl-].[Mn+3]` [AEOL 10150], the “tobacco smoke-induced inflammation in the lungs” value in series [3] is listed as “decrease”.
In the case of `O=C(O)CCCCCCCCCCCNC(=O)NC12CC3CC(CC(C3)C1)C2` [AUDA], in series [4] (blood, single subcutaneous dose of AUDA-nBE 10 mg/kg), the half-life worked out at 22 h.
For the molecule `CCCCOC(=O)CCCCCCCCCCCNC(=O)NC12CC3CC(CC(C3)C1)C2` [AUDA-nBE, 12-(3-adamantane-1-yl-ureido)-dodecanoic acid butyl ester], the “metabolism of the prodrug” value in series [4] (subcutaneous administration) is “metabolized to AUDA”. Further, in series [5] (filtered air), the “% Eosinophils” value came to 0.15 ± 0.10%, the “% Lymphocytes” value worked out at 0.55 ± 0.15%, the “% Macrophages” value is given as 92.1 ± 1.6% and the “% Neutrophils” value is recorded as 7.3 ± 1.8%. Also, in series [5] (tobacco smoke), the “% Eosinophils” value is on record as 0.10 ± 0.10%, the “% Lymphocytes” value is listed as 0.25 ± 0.10 %, the “% Macrophages” value worked out at 62.9 ± 1.8 % and the “% Neutrophils” value is recorded as 36.8 ± 1.6 %. Moreover, the “reduction in the number of neutrophils found in the lungs” value in series [5] (rats, animal model of COPD (tobacco smoke), FIG. 4) was roughly 55%. Also, in series [5] (tobacco smoke 3 days, treatment before exposure, FIG. 2), the “total number of cells in BALF” value is recorded as “significantly decreased”. Besides, in series [5] (tobacco smoke 3 days, treatment before exposure, FIG. 3), the “number of BALF macrophages” value is reported as “significantly decreased; also recorded: significant reductions”. In addition, the “number of BALF neutrophils” value in series [5] (tobacco smoke 3 days, treatment before exposure, FIG. 4) is “significantly decreased; also recorded: significant reductions”. Besides, the “number of BALF lymphocytes” value in series [5] (tobacco smoke 3 days, treatment before exposure, FIG. 5) is on record as “decreased the number of BALF lymphocytes to levels not significantly different from filtered air controls; also recorded: significant reductions”.
